Test results taken from patent publication US9376393B2, “Quinoline compounds which are anti-angiogenic integrin alpha5 beta1 inhibitors for use in the treatment of fibrosis or fibrosis-related diseases” (Clanotech AB, priority 2012, dated 2016).
Where “and” joins values, the source holds several entries; their conditions need not be identical. Equal values may be shown once. Where a name gives a salt, the structure may show the parent alone.

Legend:
Type in all cases: in vivo
Poly-ADP-ribose (PAR) = assay: Bleomycin-induced lung fibrosis mouse model: immunohistochemical localization of PAR
Description: (§1) Bleomycin-induced Lung Fibrosis Mouse Model
(§2) Thirty male CD-1 mice weighing 27.5±0.4 g were used in this study (obtained from Harlan Nossan, Milan, Italy), and were allowed access to food and water ad libitum. The mice were kept in laminar flow rooms at constant temperature and humidity with 3 animals in each cage. The temperature of the room was controlled between 20-26° C. and the humidity of the room was controlled between 40-70%.
(§3) Mice received a single intra-tracheal instillation of saline (0.9%), or saline containing bleomycin sulfate (BLM, 0.1 IU per mouse) in a volume of 100 μl. Mice were then sacrificed after 7 days by pentobarbitone overdose. […]
(§4) At 7 days after BLM administration, lung tissues were fixed in 10% PBS-buffered formaldehyde and 7 μm sections were prepared from paraffin-embedded tissues. […] Specific labeling was detected with a biotin-conjugated goat anti-rabbit IgG and avidin-biotin peroxidase complex (DBA). […]

TGF-β = assay: Bleomycin-induced lung fibrosis mouse model: immunohistochemical localization of TGF-β
Description: as §1, §2, §3, §4

iNOS = assay: Bleomycin-induced lung fibrosis mouse model: immunohistochemical localization of iNOS
Description: as §1, §2, §3, §4

COX-2 = assay: Bleomycin-induced lung fibrosis mouse model: immunohistochemical localization of COX-2
Description: as §1, §2, §3, §4

[1] = system: bleomycin-induced lung fibrosis; assay: Bleomycin-induced lung fibrosis mouse model: overall outcome
Excerpt: as §1
(§5) Pulmonary fibrosis is a common response to various insults to the lung and is the end-point of a numerous and heterogenous group of disorders known as interstitial lung disease (ILD), characterized by chronic inflammation and progressive fibrosis of the pulmonary interstitium. […] instillation of the anti-tumour agent bleomycin (BLM) is the most commonly used animal model for pulmonary fibrosis.
as §2
(§6) Mice received a single intra-tracheal instillation of saline (0.9%), or saline containing bleomycin sulfate (BLM, 0.1 IU per mouse) in a volume of 100 μl. Mice were then sacrificed after 7 days by pentobarbitone overdose.
(§7) Animals were randomized into three experimental groups of 10 animals in each group, and were treated with either hydroxypropyl methyl cellulose (HPMC) (0.5%)/HPbetaCyclodextrin (20%) as a 5 ml/kg s.c. injection 30 min after intra-tracheal instillation of BLM and every 12 h thereafter until completion of the study, or with the compound I-4×HCl (4-[(4-Methoxyphenyl)amino]-6-(methylcarbamoyl)quinoline-3-carboxylic acid hydrochloride) at 30 mg/kg as a s.c. injection 30 min after intra-tracheal instillation of BLM and every 12 h thereafter until completion of the study.
The levels of various fibrotic markers were measured in the three groups (A, B and C). For each marker, the level measured in the bleomycin-injured, vehicle-treated group (BLM+Vehicle) was taken as 100%. In Table 3, the corresponding marker levels for the “sham injured” group treated with vehicle (Sham+Vehicle), and the bleomycin-injured group treated with compound I-4 (BLM+I-4×HCl), are indicated as a percentage of the level in the BLM+Vehicle group.

Nitrotyrosine = assay: Bleomycin-induced lung fibrosis mouse model: immunohistochemical localization of nitrotyrosine
Description: as §1, §2, §3, §4

[2] = Bleomycin-induced lung fibrosis mouse model: observations, body weight; details: 30 mg/kg 30 min after intra-tracheal BLM and every 12 h thereafter
Description: as §1, §2, §3
At the time of routine monitoring, the animals were checked for any effects of acute lung injury and treatments on normal behavior such as mobility, food and water consumption (by looking only), body weight gain/loss (body weights were measured daily), eye/hair matting and any other abnormal effect. Death and observed clinical signs were recorded on the basis of the numbers of animals within each subset.

[3] = system: bleomycin-induced lung fibrosis; assay: Bleomycin-induced lung fibrosis mouse model: histological examination, scoring for lung fibrosis; set-up: key to Histological fibrosis score / Histological fibrosis score, Mean: 0 = normal lung, 8 = total fibrous obliteration of fields
Excerpt: as §1, §5, §2, §6, §7
Lung biopsies were taken 7 days after BLM injection. After fixation at room temperature in buffered formaldehyde solution (10% in phosphate buffered saline [PBS]), the sections were prepared and stained by haematoxylin-eosin and observed with an Axiovision Zeiss microscope (Milan, Italy).
Scoring for lung fibrosis was graded on a scale from 0 to 8 by examining randomly chosen sections, with 5 fields per sample at a magnification of ×100. Criteria for grading lung fibrosis were as follows: grade 0, normal lung; grade 1, minimal fibrous thickening of alveolar or bronchiolar walls; grade 3, moderate thickening of walls without obvious damage to lung architecture; grade 5, increased fibrosis with definite damage to lung structure and formation of fibrous bands or small fibrous masses; grade 7, severe distortion of structure and large fibrous areas; and grade 8, total fibrous obliteration of fields (Cuzzocrea S, et al. Am J Physiol Lung Cell Mol Physiol. (2007) 292:L1095-104).
All data in the text are presented as mean±s.e. mean of n observations, where n represents the number of animals studied. All statistical analysis was calculated using GraphPad Prism 5 (GraphPad Software, San Diego, Calif., USA). Data without repeated measurements were assessed by a Mann-Whitney U t-test. Data with repeated measurements were assessed by a two-way ANOVA followed by a Bonferroni post-hoc test. A P-value of less than 0.05 was considered to be statistically significant.

Myeloperoxidase (MPO) = assay: Bleomycin-induced lung fibrosis mouse model: myeloperoxidase (MPO) assay in lung; details: percentage of the level in the BLM+Vehicle group (100%); 30 mg/kg s.c. every 12 h; 7 days after BLM
Description: as §1, §2, §3
Myeloperoxidase (MPO) activity was determined 7 days after BLM injection. […] The rate of change in absorbance was measured spectrophotometrically at 650 nm. MPO activity was defined as the quantity of enzyme degrading 1 μmol of peroxide per min at 37° C. and was expressed in units per gram weight of wet tissue.

IL-1β = assay: Bleomycin-induced lung fibrosis mouse model: measurement of cytokines, IL-1β; details: percentage of the level in the BLM+Vehicle group (100%); 30 mg/kg s.c. every 12 h; 7 days after BLM
Description: as §1, §2, §6, §7
(§8) TNF-α and IL-1β levels were evaluated from lung tissues collected at 7 days after BLM administration. […]

lung oedema = assay: Bleomycin-induced lung fibrosis mouse model: measurement of lung oedema
Description: as §1, §2, §3
The wet lung weight was measured 7 days after BLM injection by careful excision of the lung from other adjacent extraneous tissues. The lung was then exposed for 48 h to 180° C. and the dry weight measured. Water content was then calculated by subtracting the dry weight from the wet weight.

TNF-α = assay: Bleomycin-induced lung fibrosis mouse model: measurement of cytokines, TNF-α; details: percentage of the level in the BLM+Vehicle group (100%); 30 mg/kg s.c. every 12 h; 7 days after BLM
Description: as §1, §2, §6, §7, §8

[4] = system: Thiobarbituric acid-reactant substances (TBARS); assay: Bleomycin-induced lung fibrosis mouse model: thiobarbituric acid-reactant substances in lung; details: percentage of the level in the BLM+Vehicle group (100%); 30 mg/kg s.c. every 12 h; 7 days after BLM
Description: as §1, §2, §3
Thiobarbituric acid-reactant substances (TBARS) measurement, which is considered a good indicator of lipid peroxidation, was determined in the lung tissues collected at 7 days after BLM administration. […] The absorbance of the supernatant was measured spectrophotometrically at […]. Levels of TBARS are expressed as μM/100 mg of wet tissue.

[5] = BLM-injured mice treated with compound, compared with sham group
[6] = percentage of the level in the BLM+Vehicle group (100%), 30 mg/kg s.c. every 12 h, 7 days after BLM
[7] = 30 mg/kg 30 min after intra-tracheal BLM and every 12 h thereafter

Structure (SMILES): CNC(=O)c1ccc2ncc(C(=O)O)c(Nc3ccc(OC)cc3)c2c1 [Compound I-4, 4-[(4-Methoxyphenyl)amino]-6-(methylcarbamoyl)quinoline-3-carboxylic acid]
- poly-ADP-ribose (PAR) level versus sham group (in words) (Poly-ADP-ribose (PAR); [5]): reduced to levels similar to those of the sham group
- TGF-β level versus sham group (in words) (TGF-β; [5]): reduced to levels similar to those of the sham group
- iNOS level versus sham group (in words) (iNOS; [5]): reduced to levels similar to those of the sham group
- COX-2 level versus sham group (in words) (COX-2; [5]): reduced to levels similar to those of the sham group
- levels of the markers induced by bleomycin (in words) ([1]; all markers of Table 3, versus BLM+Vehicle): statistically significantly reduced
- overall effect in the bleomycin model (in words) ([1]; conclusion from Tables 2 and 3): potent anti-fibrotic and ant-inflammatory effect
- Nitrotyrosine level versus sham group (in words) (Nitrotyrosine; [5]): reduced to levels similar to those of the sham group

Structure (SMILES): CNC(=O)c1ccc2ncc(C(=O)O)c(Nc3ccc(OC)cc3)c2c1 [I-4 × HCl, 4-[(4-Methoxyphenyl)amino]-6-(methylcarbamoyl)quinoline-3-carboxylic acid hydrochloride]
- weight loss (in words) [2]: significant attenuation
- Poly-ADP-ribose (PAR) (immunohistochemical localization) (Poly-ADP-ribose (PAR); [6]): 0.1%
- TGF-β (immunohistochemical localization) (TGF-β; [6]): 0.1%
- acute lung injury (in words) [3, 7]: significant attenuation
- histological scoring of fibrosis (in words) [3, 7]: significant attenuation
- Histological fibrosis score, Mean ([3]; group mean of 10 mice, BLM-injured CD-1 mice, 30 mg/kg s.c. 30 min after BLM and every 12 h, 7 days after BLM, scale from 0 to 8): 2.40
- Histological fibrosis score ([3]; individual mice 1-10, BLM-injured CD-1 mice, 30 mg/kg s.c. 30 min after BLM and every 12 h, 7 days after BLM, scale from 0 to 8, hydrochloride, 30 mg/kg): 2.0 (4×) and 3.0 (5×) and 1.0
- Histological score for lung acute injury [3, 6]: 33%
- iNOS (immunohistochemical localization) (iNOS; [6]): 0.1%
- COX-2 (immunohistochemical localization) (COX-2; [6]): 0.1%
- Lung myeloperoxidase (MPO) (Myeloperoxidase (MPO)): 47%
- lung inflammation (in words) [1, 7]: significant attenuation
- Lung IL-1β levels (IL-1β): 50%
- lung oedema (in words) (lung oedema; [7]): significant attenuation
- Wet/dry weight ratio (oedema) (lung oedema; [6]): 52%
- Nitrotyrosine (immunohistochemical localization) (Nitrotyrosine; [6]): 0.1%
- Lung TNF-α levels (TNF-α): 45%
- Lung TBARS levels [4]: 45%
